The conditions of data set [1]: dog, in vivo, sc, 0.837 mg/kg.
The conditions of data set [2]: cited from earlier work.
The conditions of data set [3]: cited from earlier work. This is another data set of the same source.
The nature of another data set: in vivo. The following applies: male, Beagle, dog, sc, 0.837 mg/kg.

Read-outs that look alike come from different tables or passages of the source.

One may read the AUC(0-t) as exposure summed from dosing to a finite time, without extrapolation to infinity. Higher therefore signals high exposure. The term MRT last denotes the average time that molecules of a dose stay in the body. In the case of `CN1CCc2cccc3c2[C@H]1Cc1ccc(O)c(O)c1-3` [Apomorphine], the Cmax in data set [1] was 3.41 ng(mL. The Solubility entry is recorded as “insoluble in Toluene” in data set [2] (in Toluene (wrapped cell r23-r24: practically insoluble)); “Sparingly soluble in water” in data set [2] (in alcohol (wrapped cell r19-r20: sparingly soluble in water and in alcohol)); “water at 80°; very slightly” in data set [2] (in chloroform (wrapped cell r21-r22: very slightly soluble)); “water at 80°; very slightly” in data set [2] (in ether (wrapped cell r21-r23: very slightly soluble)); “Sparingly soluble in water” in data set [2] (in water). For the same compound, the Stability entry is “acquires a green color on” in data set [3] (exposure to light and air (wrapped cell r15-r17: gradually acquires a green color)); “Stable under recommended” in data set [3] (recommended storage conditions (protect from light)). The same compound returned an AUC(0-t) in “in vivo” (AUClast) of 82.9 ng·h/mL. In “in vivo” (MRTlast), the MRT last is 24.4 h. In the data set “in vivo” (Tmax), this compound displayed a tmax of 30 h.
